According to patent EP0532759A1, “NOVEL ALLYL ALCOHOL DERIVATIVE” (TSUMURA & CO., priority 1991, dated 1992):
pIC50: −log10 of the molar value. Where two headings read alike, the source gives them in different places. Marks after values point to notes of the source that are not given here.

Legend:
[1] = tested on: rat; test: Analgesic activity test (Randall-Selitto method, Brewer's yeast); assay type: in vivo
Protocol: Experimental was made with "Randall-Selitto" analgesic effect measuring apparatus (manufactured by Ugo Basile in Italy), pressure was applied through a pressure terminal, and the pressure (g) applied at the time showing a wriggling motion in rat was measured as a threshold value for pain. The threshold value for pain was measured for each leg, and rats showing substantially the same degree of threshold value for pain were selected and used for the experiment. A 20 % aqueous Brewer's yeast solution was subcutaneously administered in an amount of 0.1 ml to the right hind paw of the rat, and the threshold value for pain was measured on both legs 30 min and 60 min after the administration of the aqueous solution. At the same time, a suspension of the compound of the present invention in a 2 % polysorbate 80 physiological saline (prepared by dissolving the compound of the present invention in polysorbate 80 in an amount of 2 % of the whole amount of the solution and gradually adding and mixing physiological saline therewith) was intravenously and orally administered, and the threshold value for pain of both legs was measured 15 min, 30 min, 60 min, 90 min and 120 min after the administration. The measurements were compared with the control group, and an increase in the threshold value for pain was regarded as an evidence for the analgesic activity.

[2] = tested on: platelet-rich plasma (PRP); test: Platelet aggregation inhibition test (Born method, in vitro); assay type: cell-based; conditions: Rattus norvegicus; for inhibition at 5 µM: compound 5 µM; for inhibition at 20 µM: compound 20 µM
Protocol: Blood was collected from a rat subjected to fasting for 12 hr so that the volume of 3.8 % sodium citrate became 1/10. The collected blood was centrifuged at room temperature and 159 x G for 10 min to collect a platelet-rich plasma (PRP). The remaining blood was centrifuged at room temperature and 1800 x G for 10 min to collect PPP (platelet poor plasma). The number of platelets was measured by means of PC-603A manufactured by Erma and adjusted to 3 x 10⁸/ml with PPP. The aggregation capability was measured according to the Born method with the concentration of PRP being 0 % (PPP) and 100 % […] through the use of a 4 channel NKK HEMATRACER aggregation meter. In an in vitro test, the novel allyl alcohol derivative was added in a concentration of 5 µM or 20 µM, the mixture was pre-incubated at 37°C for 3 min. An aggregation inducer was added thereto, and the aggregation capability was measured. Adenine diphosphate (ADP), collagen, epinephrine and arachidonic acid were used as the aggregation inducer. The concentration of the aggregation inducer was 2 µM for ADP, 1 µg/ml for collagen, 400 µM for arachidonic acid and 6 µg/ml of epinephrine. The novel ally] alcohol derivative was applied to the experiment after dissolution in dimethylsulfoxide (DMSO). The final concentration of DMSO thereof was 0.4 %, the addition of DMSO alone in this concentration had no clear effect on the aggregation of the platelet.

[3] = target: T1, 5-lipoxygenase (Rattus norvegicus, UniProt P12527); test: 5-Lipoxygenase inhibitory activity (5-HETE formation, HPLC); assay type: biochemical; conditions: enzyme preparation from RBL-1 culture cells; 10 µM arachidonic acid; 37°C, 10 min; read-out: IC₅₀
T1 construct: endogenous in cells; host or cells: RBL-1 cells (sonicated, 105,000 x G supernatant)
T1 sequence (P12527 1-673): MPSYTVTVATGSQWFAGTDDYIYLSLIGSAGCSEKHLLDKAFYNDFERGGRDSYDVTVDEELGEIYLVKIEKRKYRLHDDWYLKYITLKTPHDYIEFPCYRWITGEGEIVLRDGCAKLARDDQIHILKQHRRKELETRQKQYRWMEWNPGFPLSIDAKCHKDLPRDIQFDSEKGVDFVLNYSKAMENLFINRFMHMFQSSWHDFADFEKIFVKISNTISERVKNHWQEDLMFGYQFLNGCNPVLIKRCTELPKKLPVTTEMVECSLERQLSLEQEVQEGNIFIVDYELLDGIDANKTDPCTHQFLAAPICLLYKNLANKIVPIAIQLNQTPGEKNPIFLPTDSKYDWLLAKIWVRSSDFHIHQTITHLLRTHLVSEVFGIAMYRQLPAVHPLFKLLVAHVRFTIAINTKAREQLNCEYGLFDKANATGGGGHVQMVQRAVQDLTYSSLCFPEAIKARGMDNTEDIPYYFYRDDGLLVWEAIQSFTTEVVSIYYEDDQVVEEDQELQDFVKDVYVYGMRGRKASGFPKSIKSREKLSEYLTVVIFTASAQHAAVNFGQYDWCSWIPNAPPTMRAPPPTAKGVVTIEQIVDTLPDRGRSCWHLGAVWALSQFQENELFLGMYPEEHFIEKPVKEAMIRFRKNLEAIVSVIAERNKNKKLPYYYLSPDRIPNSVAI
Protocol: RBL-1 culture cells were suspended in a 50 mM phosphate buffer (pH: 7.4) containing 1 mM ethylenediaminetetraacetic acid (EDTA) and 10 % ethylene glycol so that the concentration was 5 x 10⁶ cells/ml. The suspension was subjected to an ultrasonic treatment and centrifuged at 10,000 x G for 10 min and further at 105,000 x G for 60 min. The resultant supernatant was used as a 5-lipoxygenase enzyme preparation.
50 mM phosphate buffer, 15 mM calcium chloride, 20 µM indomethacin, 18 mM glutathione, 6 mM adenosine triphosphate (ATP), 10 µM arachidonic acid, the enzyme preparation prepared above and an ethanol solution of the compound of the present invention were placed in a test tube in such a manner that the whole quantity was 0.6 ml and the final concentration was 5 µM, 1 µM and 0.5 µM. A reaction was allowed to proceed at 37°C for 10 min. After the completion of the reaction, 1.2 ml of acetone and 100 µl of 2 N formic acid were added thereto to terminate the reaction. […] The resultant extract was concentrated and dissolved in methanol, and the content of […] in the solution was measured by means of high performance liquid chromatography [column = TSK-gel ODS-80 TM (manufactured by Tosoh Corporation); mobile phase = acetonitrile : water : acetic acid (60 : 40 : 0.02); flow rate = 1 ml/min; ultraviolet rays for detection = 235 nm]. […]

[4] = tested on: microvascular endothelial cells derived from human caul; test: Proliferation and migration of microvascular endothelial cells (Boyden chamber, EGF); assay type: cell-based; conditions: Endothelial cell, 10 µM/ml compound, 10 ng/ml EGF, cells that came out into the lower chamber, read-out: percentage inhibition
Protocol: 5 x 10⁴ microvascular endothelial cells derived from human caul were placed in an upper chamber of a Boyden chamber, and 10 ng/ml of EGF was added as a control to a lower chamber separated from the upper chamber by means of a filter having a pore size of 5 µm (a polycarbonate filter manufactured by Nucleobore). 10 ng/ml of EGF and 10 µM/ml of the compound of the present invention were added to the drug administration group . The number of cells which had come out into the lower chamber was measured in terms of cells per HPF […].

[5] = target: cyclooxygenase; test: Cyclooxygenase inhibitory activity (PGE2 formation from [1-14C] arachidonic acid); assay type: biochemical; conditions: microsome fraction of rabbit kidney medulla; 37°C, 15 min; PGE2 radioactivity; read-out: IC₅₀
Protocol: 60 ml of a 0.1 M phosphate buffer (pH: 7.5) containing 1 mM glutathione was added to 7.0 g of medulla of kidney of a rabbit, and the mixture was homogenized through the use of a polytron. The resultant homogenate was centrifuged at 9,000 x G for 20 min to obtain a microsome fraction. This fraction was dissolved in 7 ml of a 0.1 M phosphate buffer (pH: 7.5) containing 1 […] glutathione to give a cyclooxygenase enzyme preparation.
4 mM glutathione, 10 mM tryptophan, 0.25 µM hemoglobin (each in final concentration) and a phosphate buffer (pH: 7.5) were added to 15 µl of the enzyme preparation thus prepared, and [1-¹⁴C] arachidonic acid (5 x 10⁴ dpm) and the compound of the present invention were further added thereto in such a manner that the concentrations were 40 µM, 20 µM, 10 µM and 5 µM, respectively (total amount: […]). The mixture was incubated at 37°C for 15 min, and 1 N hydrochloric acid was added thereto to terminate the reaction. Prostaglandin E₂ (PGE₂) was added thereto as a carrier, and the reaction product was extracted with 2 ml of an ether. The resultant extract was concentrated and applied to thin layer chromatography (development solvent = chloroform : methanol : acetic acid = 18 : 1 : 1) to separate a product. […] The PGE₂ radioactivity was measured by means of a liquid scintillation counter.

[6] = LD50 (acute toxicity); conditions: in vivo, mouse, 72 hr after administration, read-out: LD₅₀
Protocol: A suspension of the compound of the present invention in a 2 % polysorbate 80 physiological saline (prepared by dissolving the compound of the present invention in polysorbate 80 in an amount of 2 % of the whole amount of the solution and gradually adding and mixing physiological saline therewith) was intravenously and orally administered to a mouse, and 72 hr after the administration, the LD₅₀ was calculated based on whether the mouse had survived or was dead. In the calculation, the up-and-down method was used for the intravenous administration, while the Litchfield-Wilcoxon method was used for the oral administration.

[7] = tested on: balb/c 3T3 cells; test: Inhibition of EGF-accelerated fibroblast growth (3H-thymidine incorporation); assay type: cell-based; conditions: 0.5 µg per hole compound, 50 pg per hole mouse EGF
Protocol: A culture solution (hereinafter referred to as "CS DMEM") containing 10 % calf serum adjusted in such a manner that fibroblast (balb/c 3T3 cells) was contained in a concentration of 2.5 x 10⁴ cells per 0.5 ml was incubated on a 24-hole plate in an amount of 1 ml per hole. After the fibroblast was saturated in a monolayer state, cultivation was conducted at 37°C for 12 hr in 1% CS DMEM instead of the above medium through the use of 5 % CO₂. 0.5 µg per hole of the compound of the present invention and 50 pg per hole of mouse EGF were added thereto, and the cultivation was further conducted for 16 hr. ³H-thymidine in an amount of 0.5 µCi/50 µl/well was added thereto, and the mixture was cultivated for 8 hr. Then, the culture solution was removed, and washing was conducted with a cooled isotonic phosphate buffer. A 5 % cold trichloroacetic acid was added thereto, and the mixture was allowed to stand for 30 min. The supernatant was removed, and the residue was dissolved in a 0.5 M sodium hydroxide solution. The solution was neutralized with 0.5 M hydrochloric acid, a scintillation cocktail was added thereto, and counting was conducted by means of a liquid scintillation counter. The radioactivity of ³H-thymidine incorporated into the cells accompanying the growth was measured to study the function of the novel allyl alcohol on the growth of the cell.

[8] = tested on: ICR mouse; test: Arachidonic acid ear lobe edema inhibiting test; assay type: in vivo; conditions: 1 mg per 20 µl acetone applied to auricle; 2 mg arachidonic acid 30 min later; ear thickness after one hour; versus control
Protocol: 1 mg of the novel allyl alcohol derivative per 20 µl of acetone were applied to the auricle on the inside of the right of an ICR mouse (female, 8 - 11 weeks old). 30 min after the application, 10 µl of an acetone solution containing 2 mg of arachidonic acid was applied to the same site, and one hour after the application of the acetone solution, the thickness of the ear was measured by means of a dial thickness gauge. An equal weight of acetone was applied to the auricle on the left side, and measurement was conducted in the same manner as that described above, and […] was regarded as swelling of the ear. Further, a group wherein the solvent was applied instead of the sample was used as a control, and the ear lobe edema inhibition was determined by the following equation. [formula]

[9] = 140 mg/kg, 15 min after administration, control 123
[10] = 140 mg/kg, 30 min after administration, control 115
[11] = 140 mg/kg, 60 min after administration, control 108
[12] = inducer arachidonic acid 400 µM

## Cc1c(N(C)C)c(=O)n(-c2ccccc2)n1C [Aminopyrine, reference compound]
[1]; [9]
  Threshold value for pain (g): 190^b g
[1]; [10]
  Threshold value for pain (g): 235^b g
[1]; [11]
  Threshold value for pain (g): 212^b g

## CCCCC/C=C/C(O)CCc1ccc(O)c(OC)c1 (stereo not shown) [compound of the present invention]
[2]; inducer ADP 2 µM
  inhibition at 5 µM: 12%
  inhibition at 20 µM: 26%
[2]; [12]
  inhibition at 5 µM: 67%
  inhibition at 20 µM: 96%
[2]; inducer collagen 1 µg/ml
  inhibition at 5 µM: 21%
  inhibition at 20 µM: 43%
[2]; inducer epinephrine 6 µg/ml
  inhibition at 5 µM: 52%
  inhibition at 20 µM: 63%
[3]
  pIC50: 6.27
[4]
  inhibition at 10 µM: 82%
[5]
  pIC50: 5.12
[6]; Intravenous, up-and-down method
  LD50 at 72 hr: 75.6 mg/kg
[6]; Oral, Litchfield-Wilcoxon method
  LD50 at 72 hr: 1340 mg/kg
[7]
  growth inhibition: 72.9%
[8]
  edema inhibition: 83%
[1]; 70 mg/kg, 15 min after administration, control 123
  Threshold value for pain (g): 153^a g
[1]; 70 mg/kg, 30 min after administration, control 115
  Threshold value for pain (g): 183^b g
[1]; 70 mg/kg, 60 min after administration, control 108
  Threshold value for pain (g): 142^a g
[1]; [9]
  Threshold value for pain (g): 190^b g
[1]; [10]
  Threshold value for pain (g): 222^b g
[1]; [11]
  Threshold value for pain (g): 210^b g
[1]; dose of 5 mg/kg, within 15 to 60 min, p < 0.05
  threshold value for pain as compared with the control group: significant increase
